This experiment concerns human chronic myelocytic leukemia-derived K562 cells. Put plainly: Cell growth inhibition test with K562 cells (WST-1). Format: cell-based. The conditions noted are these: 72 hours, read-out: 50% growth inhibition concentration (GI50). As to the method:
In a 96-well plate (Nunc), human chronic myelocytic leukemia-derived K562 cells were sown in an amount of 1500 cells/well, and pre-incubated in 10% FCS-containing Rosewell Park Memorial Institute's Medium (RPMI) 1640 (Nissui) (incubation medium) in a 5% carbon dioxide incubator at 37° C. for 5 hours. Next, a DMSO solution of a test compound controlled at 10 mmol/L was stepwise diluted with the incubation medium, and added to each well in a total amount of 100 μL/well, and further incubated in the 5% carbon dioxide incubator at 37° C. for 72 hours. After the incubation, WST-1-labeled mixture (Rosh Diagnostic) diluted 2-fold with the incubation medium was added thereto in an amount of 20 μL/well, and incubated in the 5% carbon dioxide incubator at 37° C. for 2 hours. Using a microplate spectrophotometer (Biorad's Model 550), the absorbance at 450 nm and 655 nm of each well was measured. The cell growth inhibition activity of the test compound was indicated by the 50% growth inhibition concentration (GI50) thereof, like in Test Example 2.
A general note: Tetrazolium assays rely on reduction of a dye to a coloured formazan, in cell work by metabolically active cells.
As for `CCCNC(=O)c1cccc(-c2c(O)cc(O)c(CC)c2CC2O[C@H](CO)[C@@H](CO)O2)c1` [Compound 306, 5-{[(4R,5R)-4,5-Bis(hydroxymethyl)-1,3-dioxolan-2-yl]methyl}-6-ethyl-4-[3-(propylcarbamoyl)phenyl]benzene-1,3-diol], the GI50 was no more than 50 µM.

Take `CCc1c(O)cc(O)c(-c2ccccc2)c1CCN1CCC(O)C1` (centres unmarked) [Compound 321, 6-Ethyl-5-[2-(3-hydroxypyrrolidin-1-yl)ethyl]-4-phenylbenzene-1,3-diol]: the GI50 is no more than 50 µM.

Consider `CCc1c(O)cc(O)c(-c2cccc(OCCN3CCCC3=O)c2)c1CCOCC(O)CO` (centres unmarked) [Compound 196, 5-[2-(2,3-Dihydroxypropoxy)ethyl]-6-ethyl-4-{3-[2-(2-oxopyrrolidin-1-yl)ethoxy]phenyl}benzene-1,3-diol], for which the GI50 is no more than 50 µM.

Take `CCc1c(O)cc(O)c(-c2ccccc2)c1CC1O[C@H](COC)[C@@H](COC)O1` [Compound 308, 5-{[(4R,5R)-4,5-Bis(methoxymethyl)-1,3-dioxolan-2-yl]methyl}-6-ethyl-4-phenylbenzene-1,3-diol]: the GI50 was no more than 50 µM.

Turning to `CCOC(=O)Oc1cc(OC(=O)OCC)c(-c2ccccc2)c(CCOCCOC)c1CC` [Compound 325, 1,5-Bis(ethoxycarbonyloxy)-4-ethyl-3-[2-(2-methoxyethoxy)ethyl]-2-phenylbenzene], the GI50 was no more than 50 µM.

As to `COC(=O)Cc1cc(O)cc(O)c1-c1ccc(CCC(C)=O)o1` [Compound 261, Methyl 3,5-dihydroxy-2-[5-(3-oxobutyl)furan-2-yl]phenylacetate], the GI50 was no more than 50 µM.

Take `CCc1c(O)cc(O)c(-c2cccc(O)c2)c1CCOCC1CO1` (centres unmarked) [Compound 219, 6-Ethyl-4-(3-hydroxyphenyl)-5-[2-(oxiran-2-ylmethoxy)ethyl]benzene-1,3-diol]: the GI50 is no more than 50 µM.

Take `CCc1c(O)cc(O)c(-c2ccccc2)c1CCC(=O)NCCNC(C)=O` [Compound 221, N-[2-(acetylamino)ethyl]-3-(2-ethyl-3,5-dihydroxy-6-phenylphenyl)propanamide]: the GI50 is no more than 50 µM.

Take `CCc1c(O)cc(O)c(-c2cccc(C(=O)NCCO)c2)c1CC1O[C@H](CO)[C@@H](CO)O1` [Compound 304, 5-{[(4R,5R)-4,5-Bis(hydroxymethyl)-1,3-dioxolan-2-yl]methyl}-6-ethyl-4-[3-(2-hydroxyethyl)carbamoylphenyl]benzene-1,3-diol]: the GI50 is no more than 50 µM.

Consider `CCc1c(O)cc(O)c(-c2cccc(O)c2)c1CC1O[C@H](CO)[C@@H](CO)O1` [Compound 298, 5-{[(4R,5R)-4,5-Bis(hydroxymethyl)-1,3-dioxolan-2-yl]methyl}-6-ethyl-4-(3-hydroxyphenyl)benzene-1,3-diol], for which the GI50 is no more than 50 µM.

Take `CCc1c(O)cc(O)c(-c2cccc(NC(C)=O)c2)c1CC1O[C@@H](CO)[C@H](CO)O1` [Compound 284, 4-[3-(acetylamino)phenyl]-5-{[(4S,5S)-4,5-bis(hydroxymethyl)-1,3-dioxolan-2-yl]methyl}-6-ethylbenzene-1,3-diol]: the GI50 was no more than 50 µM.

In the case of `CCc1c(O)cc(O)c(-c2cccc(F)c2)c1CC1O[C@H](CO)[C@@H](CO)O1` [Compound 296, 5-{[(4R,5R)-4,5-bis(hydroxymethyl)-1,3-dioxolan-2-yl]methyl}-6-ethyl-4-(3-fluorophenyl)benzene-1,3-diol], the GI50 is no more than 50 µM.

As for `CCc1c(O)cc(O)c(-c2cccc(C(=O)NC)c2)c1CC1O[C@H](CO)[C@@H](CO)O1` [Compound 294, 5-{[(4R,5R)-4,5-Bis(hydroxymethyl)-1,3-dioxolan-2-yl]methyl}-6-ethyl-4-[3-(methylcarbamoyl)phenyl]benzene-1,3-diol], the GI50 is no more than 50 µM.

As for `CCc1c(O)cc(O)c(-c2cccc(C(=O)N(C)C)c2)c1CC1O[C@@H](CO)[C@H](CO)O1` [Compound 290, 5-{[(4S,5S)-4,5-Bis(hydroxymethyl)-1,3-dioxolan-2-yl]methyl}-4-[3-(dimethylcarbamoyl)phenyl]-6-ethylbenzene-1,3-diol], the GI50 is no more than 50 µM.

These data come from US7538241B2, “Hsp90 family protein inhibitors” (Kyowa Hakko Kogyo Co., Ltd., priority 2003, dated 2009).
